According to US11879137B2, “Treatment of type 1 diabetes and autoimmune diseases or disorders” (THE CHILDREN'S MEDICAL CENTER CORPORATION, priority 2017, dated 2024):

Test system: PD-L1 on CD34+ cells
Assay: Confocal imaging of PD-L1 on PGE2-treated CD34+ cells
Format: cell-based, human
Details: vs untreated CD34+ cells
Procedure: Immunofluorescence and confocal microscopy. Regulatory CD34+(PGE2-modulated) cells and unmodulated CD34+ cells isolated from peripheral blood of healthy controls were fixed in 4% PFA for 1h at 4 C, washed 3 times for 20 min in PBS, and cells were counterstained with blue fluorescent DAPI (1:10000, BioLegend, San Diego, CA) and anti-human PD-L1 (BD Biosciences). Cells were photographed under a 63× objective. Images were captured on a Leica SPSX system with an upright DM6000 microscope and AIR confocal microscope (Nikon Instruments, Melville, NY). Histology was evaluated by at least two expert pathologist (9).
Prostaglandin library screening. PGE2 has been described as a small molecule known to enhance the homing and engraftment of HSPCs. It was therefore sought to screen all known types of prostaglandins using the Prostaglandin Screening Library II, which contains 64 small molecules. Each small molecule contained in the library was first screened for its capacity to upregulate PD-L1 in human CD34+ cells isolated from T1D patients (FIG. 17A-17B). […] Using FACS analysis, the MFI (mean fluorescence intensity) of PD-L1 expression was calculated following treatment with each small molecule used to modulate CD34+ cells as compared to untreated/unmodulated CD34+ cells (FIG. 17B). […]

CCCCC[C@H](O)/C=C/[C@H]1[C@H](O)CC(=O)[C@@H]1C/C=C\CCCC(=O)O [PGE2, prostaglandin E2]
PD-L1 surface expression by confocal imaging: upregulated
